The values below come from EP2033955A1, “Urea derivatives of 1H-pyrazol-4-carboxylic acid with neutrophil chemotaxis inhibiting activity” (Universita' Degli Studi Di Genova, priority 2007, dated 2009).

For assay [1], the system named is human peripheral blood neutrophils. Description: Inhibition of IL8 (CXCL8)-induced neutrophil chemotaxis (48-well microchemotaxis chamber, leading-front method). The assay is classed as cell-based. To be noted: CXCL8 10^-8 M in lower compartment, neutrophils pre-incubated ten minutes with compound, means of six experiments, read-out: Inhibition of the migration of neutrophils induced by IL8 CI50. The method, then: (§1) The inhibitory activity of the compounds according to the present invention towards fMLP- or CXCL8-induced chemotaxiswas evaluated following methods described in the literature (Giordano, C. et al., Bioorg. Med. Chem. 2006, 14, 2642 and documents cited in such article).
(§2) Cells were obtained from blood of healthy subjects and human peripheral blood neutrophils were purified by using the standard techniques of dextran sedimentation (Pharmacia, Uppsala, Sweden), centrifugation on Ficoll-Paque (Pharmacia) and hypotonic lysis of contaminating red blood cells. The cells were washed twice and resuspended in Krebs-Ringer (KRPG) phosphate, pH 7.4, at a final concentration of 50 x 10^6 cells/ml and kept at room temperature until used. The neutrophils were 98-100% viable, as determined using the Trypan blue exclusion test.
(§3) The f-MLP-OMe and the compounds to be tested (10-^2M) were dissolved in dimethylsulfoxide (DMSO) while CXCL8 (10^-5 M) was dissolved in water. All solutions were diluted in KRPG before use to obtain the final concentration required by the experimental protocol.
(§4) A random locomotion test was carried out with a 48-well microchemotaxis chamber (Bio Probe, Milan) and migration into the filter was evaluated by the leading-front method (Gennari, C. et al, Eur. J. Org. Chem. (1998), p. 945) by estimating the distance in micrometres which the leading edge of the cell migrated. The actual control random movement is 35 ± 3 µm SE of six separate experiments carried out in duplicate.
(§5) The directional movement or chemotaxis was measured with the same chamber used for the random locomotion, adding fMLP-OMe 10^-9 M or CXCL8 10^-8 M in the lower compartment.
(§6) Each compound to be tested was added in the upper compartment of the chemotaxis chamber, diluted at concentrations varying from 10^-15 to 10^-5 M with KRPG containing 1 mg/ml of bovine serum albumin (BSA; Orha Behringwerke, Germany).
(§7) The neutrophils were pre-incubated with the compounds to be tested ten minutes before the functional test. The data was expressed in terms of chemotactic index (C.I.), which is the ratio (migration towards test attractant - migration towards the buffer)/migration towards the buffer.
(§8) The antagonism was measured as C.I. in the absence (100%) and in the presence of the compound to be tested at different concentrations. CI50 values were calculated from the sigmoid dose-response curve by a nonlinear regression analysis (Graph Pad Prism, San Diego, USA).
(§9) The values are means of six separate experiments carried out twice. The standard errors are in the range of 0.02-0.09 C.I.

Assay [2] shares this test system. Nature of the assay: Inhibition of fMLP-induced neutrophil chemotaxis (48-well microchemotaxis chamber, leading-front method). In kind it is cell-based. The conditions noted are these: for IC50: read-out: Inhibition of the migration of neutrophils induced by fMLP CI50; for Percentage in brackets after the fMLP CI50 bound: meaning of the percentage not explained. How it is done:
as §1, §2, §3, §4, §5, §6, §7, §8, §9

Where [3] appears, read: Homo sapiens, Neutrophil, fMLP-OMe 10^-9 M in lower compartment, neutrophils pre-incubated ten minutes with compound, means of six experiments.
The mark [4] stands for this setting: Homo sapiens, Neutrophil, fMLP-OMe 10^-9 M, unit µM, highest tested concentration 10^-5 M.
[5] abbreviates: fMLP-OMe 10^-9 M in lower compartment, neutrophils pre-incubated ten minutes with compound, means of six experiments.

For the compound `CCCC(O)Cn1ncc(C(=O)OCC)c1NC(=O)NC(C)C` (centres unmarked) [Ip, 1-(2-hydroxypentyl)-5-(3-isopropylureido)-1H-pyrazole-4-carboxylic acid ethyl ester], the IC50 in assay [1] (Homo sapiens, Neutrophil) came out at 1 ± 0.05 nM; in assay [2] (setting [3]), 0.02 ± 0.0022 µM.

With `CCOC(=O)c1cnn(CC(C)O)c1NC(=O)NN1CCN(Cc2ccccc2)CC1` (centres unmarked) [Id, 1-(2-hydroxypropyl)-5-[3-(4-benzyl)piperazinylureido]-1H-pyrazole-4-carboxylic acid ethyl ester], the “Percentage in brackets after the fMLP CI50 bound” value in assay [2] (fMLP-OMe 10^-9 M) is listed as 63%. The IC50 in assay [2] (fMLP-OMe 10^-9 M, unit µM, highest tested concentration 10^-5 M) was more than 10 µM.

With `CCOC(=O)c1cnn(CC(C)O)c1NC(=O)Nc1cccc2ccccc12` (centres unmarked) [Ih, 1-(2-hydroxypropyl)-5-[3-(1-naphthyl)ureido]-1H-pyrazole-4-carboxylic acid ethyl ester], the IC50 in assay [2] (setting [3]) was 0.0098 ± 0.0009 µM.

In the case of `CCOC(=O)c1cnn(CC(O)c2ccccc2)c1NC(=O)Nc1cccc2ccccc12` (centres unmarked) [Ia, 1-(2-hydroxy-2-phenylethyl)-5-[3-(1-naphthyl)ureido]-1H-pyrazole-4-carboxylic acid ethyl ester], the IC50 in assay [1] (Homo sapiens, Neutrophil) was 0.0076 ± 0.001 nM; in assay [2] (setting [3]), 0.0078 ± 0.00052 µM.

Take `CCOC(=O)c1cnn(CC(O)CC)c1NC(=O)Nc1ccccc1F` (centres unmarked) [Il, 1-(2-hydroxybutyl)-5-[3-(2-fluorophenyl)ureido]-1H-pyrazole-4-carboxylic acid ethyl ester]: the IC50 in assay [1] (Homo sapiens, Neutrophil) was determined as 0.0016 ± 0.0002 nM; in assay [2] (setting [3]) it was 0.12 ± 0.012 µM.

For `CCOC(=O)c1cnn(CC(O)CC)c1NC(=O)Nc1ccc(F)cc1` (centres unmarked) [In, 1-(2-hydroxybutyl)-5-[3-(4-fluorophenyl)ureido]-1H-pyrazole-4-carboxylic acid ethyl ester], the IC50 turned out to be 1.9 ± 0.13 nM in assay [1] (Homo sapiens, Neutrophil) and 0.0032 ± 0.0004 µM in assay [2] (setting [3]).

Regarding `COC(=O)[C@H](Cc1ccccc1)NC(=O)[C@H](CC(C)C)NC(=O)[C@H](CCSC)NC=O` [fMLP-OMe], the “chemotactic index (C.I.)” value in assay [2] (chemoattractant alone at 10^-9) is 1.2.

For the compound `CCOC(=O)c1cnn(CC(O)CC)c1NC(=O)Nc1cccc2ccccc12` (centres unmarked) [Io, 1-(2-hydroxybutyl)-5-[3-(1-naphthyl)ureido]-1H-pyrazole-4-carboxylic acid ethyl ester], the IC50 in assay [1] (Homo sapiens, Neutrophil) was 9.6 ± 1 nM; in assay [2] (setting [3]), 0.012 ± 0.0012 µM.

Regarding `CCOC(=O)c1cnn(CC(C)O)c1NC(=O)Nc1cccc(F)c1` (centres unmarked) [If, 1-(2-hydroxypropyl)-5-[3-(3-fluorophenyl)ureido]-1H-pyrazole-4-carboxylic acid ethyl ester], in assay [2] (setting [4]), the IC50 was more than 10 µM. In addition, in assay [2] (fMLP-OMe 10^-9 M), the “Percentage in brackets after the fMLP CI50 bound” value is reported as 60%.

With `CCCC(O)Cn1ncc(C(=O)OCC)c1NC(=O)NCc1ccccc1` (centres unmarked) [Iq, 1-(2-hydroxypentyl)-5-(3-benzylureido)-1H-pyrazole-4-carboxylic acid ethyl ester], the IC50 stood at 0.0032 ± 0.0001 nM in assay [1] (Homo sapiens, Neutrophil) and 0.00043 ± 5e-05 µM in assay [2] (setting [3]).

On to `CCOC(=O)c1cnn(CC(O)CC)c1NC(=O)NC(C)C` (centres unmarked) [Ii, 1-(2hydroxybutyl)-5-(3-isopropylureido)-1H-pyrazole-4-carboxylic acid ethyl ester], for which the IC50 is 0.0042 ± 0.0007 nM in assay [1] (Homo sapiens, Neutrophil) and more than 10 µM in assay [2] (setting [4]). Further, the “Percentage in brackets after the fMLP CI50 bound” value in assay [2] (fMLP-OMe 10^-9 M) amounted to 52%.

Consider `CCOC(=O)c1cnn(CC(O)CC)c1NC(=O)Nc1cccc(F)c1` (centres unmarked) [Im, 1-(2-hydroxybutyl)-5-[3-(3-fluorophenyl)ureido]-1H-pyrazole-4-carboxylic acid ethyl ester], for which the IC50 in assay [1] (Homo sapiens, Neutrophil) turned out to be 0.36 ± 0.06 nM; in assay [2] (setting [3]), 0.00019 ± 1e-05 µM.

For the compound `CCOC(=O)c1cnn(CC(O)CC)c1NC(=O)NN1CCN(Cc2ccccc2)CC1` (centres unmarked) [Ik, 1-(2-hydroxybutyl)-5-[3-(4-benzyl)piperazinylureido)-1H-pyrazole-4-carboxylic acid ethyl ester], the IC50 in assay [2] (setting [5]) was 2 ± 0.2 µM.

`CCCC(O)Cn1ncc(C(=O)OCC)c1NC(=O)NN1CCN(Cc2ccccc2)CC1` (centres unmarked) [Ir, 1-(2-hydroxypentyl)-5-[3-(4-benzyl)piperazinylureido)-1H-pyrazole-4-carboxylic acid ethyl ester]: the IC50 turned out to be 0.09 ± 0.004 nM in assay [1] and 0.0011 ± 0.0001 µM in assay [2] (setting [5]).

Regarding `CCOC(=O)c1cnn(CC(C)O)c1NC(=O)NC(C)C` (centres unmarked) [Ib, 1-(2-hydroxypropyl)-5-(3-isopropylureido)-1H-pyrazole-4-carboxylic acid ethyl ester], the IC50 in assay [2] (setting [3]) came to 0.09 ± 0.0093 µM.

Turning to `CCOC(=O)c1cnn(CC(C)O)c1NC(=O)Nc1ccccc1F` (centres unmarked) [Ie, 1-(2-hydroxypropyl)-5-[3-(2-fluorophenyl)ureido]-1H-pyrazole-4-carboxylic acid ethyl ester], the IC50 in assay [2] (setting [3]) came out at 0.1 ± 0.0103 µM.

For `CCOC(=O)c1cnn(CC(O)CC)c1NC(=O)NCc1ccccc1` (centres unmarked) [Ij, 1-(2-hydroxybutyl)-5-(3-benzylureido)-1H-pyrazole-4-carboxylic acid ethyl ester], the IC50 in assay [1] (Homo sapiens, Neutrophil) was 0.0074 ± 0.0002 nM; in assay [2] (setting [4]), more than 10 µM. In assay [2] (fMLP-OMe 10^-9 M), the “Percentage in brackets after the fMLP CI50 bound” value turned out to be 54%.

As for `CCOC(=O)c1cnn(CC(C)O)c1NC(=O)Nc1ccc(F)cc1` (centres unmarked) [Ig, 1-(2-hydroxypropyl)-5-[3-(4-fluorophenyl)ureido]-1H-pyrazole-4-carboxylic acid ethyl ester], the IC50 in assay [1] (Homo sapiens, Neutrophil) was 0.2 ± 0.06 nM; in assay [2] (setting [4]) it was more than 10 µM. Moreover, in assay [2] (fMLP-OMe 10^-9 M), the “Percentage in brackets after the fMLP CI50 bound” value is recorded as 55%.

For `CCOC(=O)c1cnn(CC(C)O)c1NC(=O)NCc1ccccc1` (centres unmarked) [Ic, 1-(2-hydroxypropyl)-5-(3-benzylureido)-1H-pyrazole-4-carboxylic acid ethyl ester], in assay [2] (setting [3]), the IC50 stood at 0.015 ± 0.0011 µM.
